# Experimental data from patent US20260184708A1, “PYRIDAZINONES AND METHODS OF USE THEREOF” (GFB (ABC), LLC, priority 2017, published 2026).
# Like-named read-outs stand apart in the source and are kept apart here.
# Target: T1, TRPC5 (Homo sapiens, UniProt Q9UL62)
# T1 construct: expressed in transfected cells; host or cells: HEK 293
# T1 sequence (Q9UL62 1-973): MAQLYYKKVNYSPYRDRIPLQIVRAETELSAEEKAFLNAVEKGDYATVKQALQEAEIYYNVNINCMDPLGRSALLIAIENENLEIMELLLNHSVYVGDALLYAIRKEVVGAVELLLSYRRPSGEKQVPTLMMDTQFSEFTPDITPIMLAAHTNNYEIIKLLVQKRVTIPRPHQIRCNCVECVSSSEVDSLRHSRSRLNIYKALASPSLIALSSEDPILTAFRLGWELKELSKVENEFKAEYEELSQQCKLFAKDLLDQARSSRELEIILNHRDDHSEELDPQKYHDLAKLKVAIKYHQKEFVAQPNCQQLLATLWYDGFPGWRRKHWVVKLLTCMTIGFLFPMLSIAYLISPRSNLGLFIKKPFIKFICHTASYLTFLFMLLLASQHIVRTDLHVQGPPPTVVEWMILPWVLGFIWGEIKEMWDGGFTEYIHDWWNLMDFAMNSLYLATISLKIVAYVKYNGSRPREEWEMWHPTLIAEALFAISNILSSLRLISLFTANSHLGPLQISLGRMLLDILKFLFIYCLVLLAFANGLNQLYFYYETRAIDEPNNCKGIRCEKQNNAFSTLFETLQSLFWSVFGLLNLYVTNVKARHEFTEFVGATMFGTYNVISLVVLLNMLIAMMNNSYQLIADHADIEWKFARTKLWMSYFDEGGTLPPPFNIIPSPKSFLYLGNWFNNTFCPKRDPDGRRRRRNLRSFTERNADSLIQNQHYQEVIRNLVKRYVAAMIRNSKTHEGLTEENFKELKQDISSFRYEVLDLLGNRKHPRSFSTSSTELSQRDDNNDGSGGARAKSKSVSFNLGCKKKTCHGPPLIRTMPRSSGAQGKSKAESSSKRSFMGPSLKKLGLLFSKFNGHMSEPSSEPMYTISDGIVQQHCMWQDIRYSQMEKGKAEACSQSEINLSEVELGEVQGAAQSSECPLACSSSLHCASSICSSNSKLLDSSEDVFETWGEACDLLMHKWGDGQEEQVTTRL
# Assay: TRPC5 automated patch clamp assay (Qpatch), current block after rosiglitazone stimulation
# Format: cell-based
# Details: HEK293 cells overexpressing TRPC5, rosiglitazone stimulation
# Protocol: HEK 293 cells expressing human TRPC5 were harvested, re-suspended in serum free medium, and added to the automated platform and used within 2-3 hours. Internal and external physiological solutions were freshly prepared prior to the assay. The external solution contained: 145 mM NaCl, 4 mM KCl, 2 mM CaCl2), 1 mM MgCl2, 10 mM HEPES, 10 mM glucose, pH 7.4 with NaOH and 300 mOsm/L. The internal solution contained 120 mM L-aspartic acid, 120 mM CsOH·H2O, 20 mM CsCl, 2 mM MgCl2, 8.8 mM CaCl2), 10 mM EGTA, 10 mM HEPES, 10 mM Glucose, 0.1 mM GTP and 2 mM Na2ATP; pH 7.2 with CsOH and 290 mOsm/L. The free internal Ca2+ concentration was buffered to 1 μM.
# The automated electrophysiological platform QPatch 16 from Sophion (Denmark) was used to carry out the compounds profiling. The series resistance and quality of seals were continuously monitored during the experiments. Data was analyzed using Sophion QPatch assay software 5.6 (Odense). IC50 values were calculated using a least squares regression algorithm (Hill equation).
# To monitor the ion currents, a voltage ramp from −100 mV to +100 mV, over 300 ms, was applied every 10 seconds, from a holding potential of −60 mV.
# After recording for a minimum of 60 seconds control period, Rosiglitazone (30 uM), was applied to activate the channel.
# [1] = Table 4, 80 mV, read-out: TRPC5_QP_ XC50_80
# [2] = Table 4, 100 mV, read-out: TRPC5_QP_ XC50_100
# [3] = Table 5, 80 mV, read-out: TRPC5_QP_ XC50_80
# [4] = Table 5, 100 mV, read-out: TRPC5_QP_ XC50_100
SMILES,IC50 [1] [µM],IC50 [2] [µM],IC50 [3] [µM],IC50 [4] [µM]
O=c1[nH]ncc(Cl)c1N1CCN(Cc2ccccc2OC(F)(F)F)CC1,5 to 10,5 to 10,–,–
Cc1ccccc1CN1CCN(c2c(Cl)cn[nH]c2=O)CC1,5 to 10,5 to 10,–,–
O=c1[nH]ncc(Cl)c1N1CCN(Cc2ccccc2C(F)(F)F)CC1,5 to 10,5 to 10,–,–
CCN(CC)C(=O)CN1CCN(c2cn[nH]c(=O)c2Cl)CC1=O,10 to 500,10 to 500,–,–
COCCOc1c(N2CCN(Cc3ccccc3C)C(=O)C2)cn[nH]c1=O,10 to 500,10 to 500,–,–
CCN(CC)C(=O)CN1CCN(c2cn[nH]c(=O)c2Cl)CC1,10 to 500,10 to 500,–,–
O=c1[nH]ncc(N2CCN(Cc3cccc4ccccc34)CC2)c1Cl,1 to 5,1 to 5,–,–
Cc1ccccc1CN1CCN(c2cn[nH]c(=O)c2C2CCOCC2)CC1=O,10 to 500,10 to 500,–,–
CCN(CC)C(=O)CN1CCN(c2cn[nH]c(=O)c2Cl)[C@H](C)C1,10 to 500,10 to 500,–,–
C[C@@H]1CN(Cc2cccc3ccccc23)CCN1c1cn[nH]c(=O)c1Cl,5 to 10,5 to 10,–,–
C[C@@H]1CN(CC(=O)N(C)C)CCN1c1cn[nH]c(=O)c1Cl,10 to 500,10 to 500,–,–
Cc1cc(F)ccc1CN1CCN(c2cc(=O)[nH][nH]c2=O)CC1,10 to 500,10 to 500,–,–
Cc1ccccc1CN1CCN(c2cn[nH]c(=O)c2Cl)C(C)C1 (centres unmarked),1 to 5,1 to 5,–,–
Cc1ccccc1CN1CCN(c2cn[nH]c(=O)c2Oc2ccccc2)CC1=O,10 to 500,10 to 500,–,–
Cc1cc(F)ccc1CN1CCN(c2cc(C)c(=O)[nH]n2)CC1,5 to 10,5 to 10,–,–
Cc1cc(F)ccc1CN1CCN(c2cn[nH]c(=O)c2Cl)C(C)C1 (centres unmarked),1 to 5,1 to 5,–,–
Cc1cc(F)ccc1CN1CCN(c2n[nH]c(=O)cc2C)CC1,10 to 500,10 to 500,–,–
C[C@@H](c1ccccc1)N1CCN(c2cn[nH]c(=O)c2Cl)CC1,5 to 10,1 to 5,–,–
C[C@H](c1ccccc1)N1CCN(c2cn[nH]c(=O)c2Cl)CC1,1 to 5,1 to 5,–,–
Cc1cc(C(F)(F)F)ccc1CN1CCN(c2cn[nH]c(=O)c2Cl)CC1,10 to 500,10 to 500,–,–
O=C1CN(c2cn[nH]c(=O)c2Cl)CCN1Cc1ccc(-c2ccccc2)cc1,10 to 500,10 to 500,–,–
COc1n[nH]c(=O)cc1N1CCN(Cc2ccc(F)cc2C)CC1,10 to 500,10 to 500,–,–

SMILES,IC50 [1] [µM],IC50 [2] [µM],IC50 [3] [µM],IC50 [4] [µM]
Cc1cccnc1CN1CCN(c2cn[nH]c(=O)c2Cl)CC1,5 to 10,5 to 10,–,–
O=C1CN(c2cn[nH]c(=O)c2Cl)CCN1Cc1cccc(-c2ccccc2)c1,10 to 500,10 to 500,–,–
Cn1ncc2c(CN3CCN(c4cn[nH]c(=O)c4Cl)CC3)cccc21,10 to 500,10 to 500,–,–
O=C1CN(c2cn[nH]c(=O)c2Cl)CCN1Cc1ccc(Oc2ccccc2)cc1,10 to 500,10 to 500,–,–
Cc1ccncc1CN1CCN(c2cn[nH]c(=O)c2Cl)CC1,5 to 10,5 to 10,–,–
O=C1CN(c2cn[nH]c(=O)c2Cl)CCN1Cc1cccc(Oc2ccccc2)c1,1 to 5,1 to 5,–,–
O=c1[nH]ncc(N2CCN(Cc3cccc4[nH]ncc34)CC2)c1Cl,10 to 500,10 to 500,–,–
O=c1[nH]ncc(N2CCN(Cc3cccc4cn[nH]c34)CC2)c1Cl,10 to 500,10 to 500,–,–
O=C1CN(c2cn[nH]c(=O)c2Cl)CCN1Cc1ccccc1Oc1ccccc1,5 to 10,5 to 10,–,–
O=C1CN(c2cn[nH]c(=O)c2Cl)CCN1Cc1cccc2ccccc12,1e-05 to 1,1e-05 to 1,–,–
CCCc1c(N2CCN(Cc3ccccc3C)C(=O)C2)cn[nH]c1=O,10 to 500,10 to 500,–,–
C=C(C)c1c(N2CCN(Cc3ccccc3C)C(=O)C2)cn[nH]c1=O,10 to 500,10 to 500,–,–
O=c1[nH]ncc(N2CCOC(Cc3ccccc3)C2)c1Cl (centres unmarked),10 to 500,10 to 500,–,–
O=c1[nH]ncc(N2CCOC(c3ccccc3)C2)c1Cl (centres unmarked),10 to 500,10 to 500,–,–
CC(C)=Cc1c(N2CCN(Cc3ccccc3C)C(=O)C2)cn[nH]c1=O,10 to 500,10 to 500,–,–
O=C1CN(c2cn[nH]c(=O)c2Cl)CCN1Cc1ccccc1-c1ccccc1,1 to 5,1 to 5,–,–
Cc1ccccc1C(C)N1CCN(c2cn[nH]c(=O)c2Cl)CC1=O (centres unmarked),1e-05 to 1,1e-05 to 1,–,–
Cc1ccccc1CN1CCN(c2cn[nH]c(=O)c2CC(C)C)CC1=O,10 to 500,10 to 500,–,–
Cc1ccccc1CN1CCN(c2cn[nH]c(=O)c2C(C)C)CC1=O,1 to 5,1 to 5,–,–
C=Cc1c(N2CCN(Cc3ccccc3C)C(=O)C2)cn[nH]c1=O,1 to 5,1 to 5,–,–
Cc1cc(F)ccc1CN1CCN(c2cn[nH]c(=O)c2Cl)CC1=O,1 to 5,1 to 5,–,–
Cc1ccccc1[C@@H](C)N1CCN(c2cn[nH]c(=O)c2Cl)CC1,1 to 5,1 to 5,–,–

SMILES,IC50 [1] [µM],IC50 [2] [µM],IC50 [3] [µM],IC50 [4] [µM]
O=C1CN(c2cn[nH]c(=O)c2Cl)CCN1Cc1ccc(Cl)cn1,10 to 500,10 to 500,–,–
CCc1c(N2CCN(Cc3ccccc3C)C(=O)C2)cn[nH]c1=O,5 to 10,5 to 10,–,–
O=C1CN(c2cn[nH]c(=O)c2Cl)CCN1Cc1ccc(C(F)(F)F)cc1,1e-05 to 1,1e-05 to 1,–,–
Cn1ncc2c(CN3CCN(c4cn[nH]c(=O)c4Cl)CC3=O)cccc21,1 to 5,1 to 5,–,–
O=c1[nH]ncc(N2CCN(C3(c4ccccc4)CC3)CC2)c1Cl,5 to 10,5 to 10,–,–
O=C1CN(c2cn[nH]c(=O)c2Cl)CCN1Cc1ccc(F)cc1OC(F)(F)F,1 to 5,1 to 5,–,–
O=C1CN(c2cnnc(Br)c2Cl)CCN1Cc1ccc(F)cc1C(F)(F)F,10 to 500,10 to 500,–,–
O=C1CN(c2c(Cl)c(Br)n[nH]c2=O)CCN1Cc1ccccc1OC(F)(F)F,10 to 500,10 to 500,–,–
O=C1CN(c2c(Cl)c(Br)n[nH]c2=O)CCN1Cc1ccccc1C(F)(F)F,1 to 5,5 to 10,–,–
Cc1cc(F)ccc1CN1CCN(c2c(Cl)c(Br)n[nH]c2=O)CC1=O,10 to 500,10 to 500,–,–
Cc1cc(F)ccc1CN1CCN(c2c(Cl)c(C)n[nH]c2=O)CC1=O,10 to 500,10 to 500,–,–
CC(C)(C)c1ccc(CN2CCN(c3cn[nH]c(=O)c3Cl)CC2=O)cc1,–,–,10 to 500,10 to 500
COc1ncccc1CN1CCN(c2cn[nH]c(=O)c2Cl)CC1,–,–,1 to 5,1 to 5
Cc1n[nH]c(=O)c(Cl)c1N1CCN(Cc2ccccc2C(F)(F)F)C(=O)C1,–,–,5 to 10,5 to 10
Cc1n[nH]c(=O)c(Cl)c1N1CCN(Cc2ccccc2OC(F)(F)F)C(=O)C1,–,–,5 to 10,5 to 10
COc1cc(F)ccc1CN1CCN(c2c(Cl)cn[nH]c2=O)CC1=O,–,–,10 to 500,10 to 500
O=C1CN(c2cn[nH]c(=O)c2Cl)CCN1Cc1cccnc1Cl,–,–,10 to 500,10 to 500
COc1ncccc1CN1CCN(c2cn[nH]c(=O)c2Cl)CC1=O,–,–,5 to 10,5 to 10
COc1ccc(CN2CCN(c3cn[nH]c(=O)c3Cl)CC2=O)cc1,–,–,5 to 10,5 to 10
O=C1CN(c2cn[nH]c(=O)c2Cl)CCN1Cc1ccc(Cl)cc1,–,–,1 to 5,5 to 10
